Reference: patent publication US20200215158A1, “Multifunctional, Self-Assembled Aptamer-Nanomedicine Compositions and Methods for treating Cancer” (The Methodist Hospital, priority 2018, published 2020)

What was measured:
[1] = Body weight of tumor-bearing mice during treatment; format: in vivo, mouse
Method: (§1) The body weight of each mouse was also measured weekly to monitor potential drug toxicity. Mice were euthanized when tumor volume exceeded 2,000 mm^3.

[2] = tested on: Karpas 299 xenograft tumor; experiment: Anticancer efficacy of Apt-NMed in vivo; design: species or system mouse; conditions: post first dose treatment
Method: Mice NOD.Cg-Prkdc^scid Il2rg^tmlWjl/SzJ (NOD SCID), 4-6-weeks old, were used to develop xenograft tumor models by subcutaneously injecting 6×10^6 cultured CD30-expressing lymphoma cells (Karpas 299) (in 100 μL of PBS buffer) into mice on the back. Dorsal tumor nodules were allowed to grow to a volume of ˜4 mm^3 before treatment initiation. Tumor-bearing mice were randomly assigned to three groups (with six mice in each group) as follows: (i) group administered with 0.25 mg Apt-NMed carrying […] to each mouse; (ii) group administered 20 μg free DOX to each mouse, and (iii) untreated group. Drugs were injected through tail veins every other day, and the treatment was continued for four weeks. Tumor length and width were measured with calipers weekly for each mouse. Tumor volume was calculated using the following equation:
Tumor Volume=Length×Width^2×0.52
as §1

COc1cccc2c1C(=O)c1c(O)c3c(c(O)c1C2=O)C[C@@](O)(C(=O)CO)C[C@@H]3O[C@H]1C[C@H](N)[C@H](O)[C@H](C)O1 [free DOX, doxorubicin]
body weight loss ([1]; day 35, 20 μg/mouse): 20% | change in mice body weight ([1]; during treatment): considerable decrease | day at which the last mouse died [2]: 38 days
